The numbers were not newly measured in US20090196863A1, “METHOD OF ANTIOXIDATION AND ANTIOXIDANT-FUNCTIONING WATER” (MIZ CO., LTD., priority 2001, published 2009), which cites them from elsewhere.

The structures appear in SMILES notation.

The conditions of the data set: normal temperature (20° C.) and atmospheric pressure.

As for `[HH]` [molecular hydrogen], the saturated solvent concentration entry is recorded as “approximately 1.6 mg/L”.
